This is an account of results in US20250084095A1, “Aminopyrimidine Derivatives as Cyclin-Dependent Kinase Inhibitors” (Accutar Biotechnology Inc., priority 2023, published 2025).

The test system of experiment [1] is Phospho-Rb (Ser807/811) in MCF7 cells. Put plainly: Phospho-Rb expression inhibition in MCF7 cells quantified by in cell Western. The experiment is classed as cell-based, human. The conditions noted are these: Homo sapiens, MCF7, 24 h, 24 hours, in cell Western, read-out: MCF7 pRb IC50. In outline: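 MCF7 cells were seeded at 20,000/well, grown overnight, then treated 24 h at 37 °C with compound dilutions (0.1% DMSO from 1000× stocks). Fixed cells were co-stained for phospho-Rb Ser807/811 and total Rb. Near-infrared dual-channel in-cell Western imaging was the read-out.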

A further experiment deals with 22RV1 cells. Put plainly: Cell growth inhibition of 22RV1 cells (CellTiter-Glo). The experiment is classed as cell-based. The conditions noted are these: Homo sapiens, 22Rv1, 120 h, 5 days, CellTiter-Glo, read-out: 22RV1 Cell Growh GI50. In outline:
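22RV1 cells were plated in RPMI1640 with FBS (20% in one version, 10% in the other) and dosed next day at various concentrations from DMSO stocks. After 5 days at 37 °C, viability was measured by CellTiter-Glo luminescence.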
(In general: Cellular ATP, detected with luciferase, serves as a proxy for viable cell number.)

With `Cc1c(CN2CC[C@@H](F)C2)n(C(C)C)c2cc(-c3nc(N[C@@H]4C[C@H]5CO[C@H](O5)[C@H]4O)ncc3F)ccc2c1=O` [Compound 292, 7-(5-fluoro-2-(((1S,3R,4S,5R)-4-hydroxy-6,8-dioxabicyclo[3.2.1]octan-3-yl)amino)pyrimidin-4-yl)-2-(((R)-3-fluoropyrrolidin-1-yl)methyl)-1-isopropyl-3-methylquinolin-4(1H)-one], in experiment [1], the IC50 was 0.04 to 0.15 µM. The GI50 with 22RV1 cells fell in the range of 0.12 to 0.45 µM.
With `CCCc1cn(C)c(=O)c2ccc(-c3nc(N[C@@H]4C[C@H]5CO[C@H](O5)[C@H]4O)ncc3Cl)cc12` [Compound 294, 6-(5-chloro-2-(((1S,3R,4S,5R)-4-hydroxy-6,8-dioxabicyclo[3.2.1]octan-3-yl)amino)pyrimidin-4-yl)-2-methyl-4-propylisoquinolin-1(2H)-one], the IC50 in experiment [1] was in the range of 0.15 to 1 µM. In the experiment with 22RV1 cells, the GI50 lay in the range of 0.45 to 3 µM.
For the molecule `CC(C)(O)c1cnc2cc(-c3nc(N[C@@H]4C[C@H]5CO[C@H](O5)[C@H]4O)ncc3Cl)cc(F)c2n1` [Compound 295, (1S,3R,4S,5R)-3-((5-chloro-4-(8-fluoro-2-(2-hydroxypropan-2-yl)quinoxalin-6-yl)pyrimidin-2-yl)amino)-6,8-dioxabicyclo[3.2.1]octan-4-ol], the IC50 in experiment [1] fell in the range of 0.15 to 1 µM. Further, the GI50 with 22RV1 cells was more than 3 µM.
In the case of `CC(C)n1c(N2C(=O)OC[C@H]2C)nc2c(F)cc(-c3nc(N[C@@H]4C[C@H]5CO[C@H](O5)[C@H]4O)ncc3Cl)cc21` [Compound 296, (R)-3-(6-(5-chloro-2-(((1S,3R,4S,5R)-4-hydroxy-6,8-dioxabicyclo[3.2.1]octan-3-yl)amino)pyrimidin-4-yl)-4-fluoro-1-isopropyl-1H-benzo[d]imidazol-2-yl)-4-methyloxazolidin-2-one], the concentration for half-maximal inhibition (IC50) in experiment [1] is 0.15 to 1 µM. Further, the GI50 with 22RV1 cells lay within 0.45 to 3 µM.
The like results for `CC(C)[C@H]1COC(=O)N1c1nc2c(F)cc(-c3nc(N[C@@H]4C[C@H]5CO[C@H](O5)[C@H]4O)ncc3Cl)cc2n1C(C)C` [Compound 297, (S)-3-(6-(5-chloro-2-(((1S,3R,4S,5R)-4-hydroxy-6,8-dioxabicyclo[3.2.1]octan-3-yl)amino)pyrimidin-4-yl)-4-fluoro-1-isopropyl-1H-benzo[d]imidazol-2-yl)-4-isopropyloxazolidin-2-one] were, in that order, 0.15 to 1 µM and 0.45 to 3 µM.

What is called IC50 is the concentration that inhibits the measured activity by half. Broadly, the GI50 is the concentration that inhibits growth by half.
